Data from patent publication US20230085307A1, “PYRIDAZINONE COMPOUND AND HERBICIDE” (NISSAN CHEMICAL CORPORATION, priority 2019, published 2023).

Legend:
[1] = test system: windgrass; test: Test Example 4: herbicidal effect by soil treatment (Table 19, symbol L); type: in vivo, windgrass (Apera spica-venti); settings: amount of applied herbicide 320 g/ha
Procedure, shortened: (§1)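 Seeds were sown in sterilized diluvial soil and covered with about 1.5 cm of soil. An emulsion formulation diluted with water to a predetermined herbicide amount was sprayed evenly onto the soil surface. Plants grew in a greenhouse at 25° C. to 30° C., and the effect was scored three weeks after application using criteria from an earlier test.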

[2] = test system: Italian ryegrass; test: Test Example 4: herbicidal effect by soil treatment (Table 19, symbol K); type: in vivo, Italian ryegrass (Lolium multiflorum); settings: amount of applied herbicide 320 g/ha
Procedure, shortened: as §1

[3] = test system: lambsquarters; test: Test Example 4: herbicidal effect by soil treatment (Table 19, symbol O); type: in vivo, lambsquarters (Chenopodium album); settings: amount of applied herbicide 320 g/ha
Procedure, shortened: as §1

[4] = test system: barnyard grass; test: Test Example 4: herbicidal effect by soil treatment (Table 19, symbol H); type: in vivo, barnyard grass (Echinochloa crus-galli); settings: amount of applied herbicide 320 g/ha
Procedure, shortened: as §1

[5] = test system: Italian ryegrass; test: Test Example 5: herbicidal effect by foliage application, plastic box (Table 20, symbol K); type: in vivo, Italian ryegrass (Lolium multiflorum); settings: amount of applied herbicide 320 g/ha; foliage application after 14-day growth; evaluated three weeks after application
Procedure, shortened: (§2)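 Plants sown in sterilized diluvial soil and grown 14 days in a greenhouse at 25° C to 30° C, then sprayed on the foliage with the compound's emulsion diluted in water to a predetermined herbicide amount. Injury to weeds and crops scored three weeks after application on a visual rating scale.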

[6] = test system: barnyard grass; test: Test Example 5: herbicidal effect by foliage application, plastic box (Table 20, symbol H); type: in vivo, barnyard grass (Echinochloa crus-galli); settings: amount of applied herbicide 320 g/ha; foliage application after 14-day growth; evaluated three weeks after application
Procedure, shortened: as §2

[7] = test system: redroot pigweed; test: Test Example 4: herbicidal effect by soil treatment (Table 19, symbol N); type: in vivo, redroot pigweed (Amaranthus retroflexus); settings: amount of applied herbicide 320 g/ha
Procedure, shortened: as §1

[8] = test system: green foxtail; test: Test Example 4: herbicidal effect by soil treatment (Table 19, symbol G); type: in vivo, green foxtail (Setaria viridis); settings: amount of applied herbicide 320 g/ha
Procedure, shortened: as §1

[9] = test system: rice flat sedge; test: Test Example 3: herbicidal effect by foliage application, Wagner pot (Table 18, symbol E); type: in vivo, rice flat sedge (Cyperus iria); settings: 320 g/ha
Procedure, shortened: (§3)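 Plants were sown in alluvial soil held under 0.1–0.5 cm standing water and grown 14 days in a greenhouse at 25–30 °C. An emulsifiable formulation, water-diluted to the set dose, was then sprayed onto the foliage, and effects were scored three weeks later using previously defined criteria.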

[10] = test system: wild oat; test: Test Example 5: herbicidal effect by foliage application, plastic box (Table 20, symbol I); type: in vivo, wild oat (Avena fatua); settings: amount of applied herbicide 320 g/ha; foliage application after 14-day growth; evaluated three weeks after application
Procedure, shortened: as §2

[11] = test system: southern crabgrass; test: Test Example 4: herbicidal effect by soil treatment (Table 19, symbol F); type: in vivo, southern crabgrass (Digitaria ciliaris); settings: amount of applied herbicide 320 g/ha
Procedure, shortened: as §1

[12] = test system: persian speedwell; test: Test Example 5: herbicidal effect by foliage application, plastic box (Table 20, symbol R); type: in vivo, Persian speedwell (Veronica persica); settings: amount of applied herbicide 320 g/ha; foliage application after 14-day growth; evaluated three weeks after application
Procedure, shortened: as §2

[13] = test system: redroot pigweed; test: Test Example 5: herbicidal effect by foliage application, plastic box (Table 20, symbol N); type: in vivo, redroot pigweed (Amaranthus retroflexus); settings: amount of applied herbicide 320 g/ha; foliage application after 14-day growth; evaluated three weeks after application
Procedure, shortened: as §2

[14] = test system: persian speedwell; test: Test Example 4: herbicidal effect by soil treatment (Table 19, symbol R); type: in vivo, Persian speedwell (Veronica persica); settings: amount of applied herbicide 320 g/ha
Procedure, shortened: as §1

[15] = test system: velvetleaf; test: Test Example 4: herbicidal effect by soil treatment (Table 19, symbol M); type: in vivo, velvetleaf (Abutilon theophrasti); settings: amount of applied herbicide 320 g/ha
Procedure, shortened: as §1

[16] = test system: chickweed; test: Test Example 5: herbicidal effect by foliage application, plastic box (Table 20, symbol P); type: in vivo, common chickweed (Stellaria media); settings: amount of applied herbicide 320 g/ha; foliage application after 14-day growth; evaluated three weeks after application
Procedure, shortened: as §2

[17] = test system: wild oat; test: Test Example 4: herbicidal effect by soil treatment (Table 19, symbol I); type: in vivo, wild oat (Avena fatua); settings: amount of applied herbicide 320 g/ha
Procedure, shortened: as §1

[18] = test system: lambsquarters; test: Test Example 5: herbicidal effect by foliage application, plastic box (Table 20, symbol O); type: in vivo, lambsquarters (Chenopodium album); settings: amount of applied herbicide 320 g/ha; foliage application after 14-day growth; evaluated three weeks after application
Procedure, shortened: as §2

[19] = test system: Chinese sprangletop; test: Test Example 3: herbicidal effect by foliage application, Wagner pot (Table 18, symbol D); type: in vivo, chinese sprangletop (Leptochloa chinensis); settings: 320 g/ha
Procedure, shortened: as §3

[20] = test system: velvetleaf; test: Test Example 5: herbicidal effect by foliage application, plastic box (Table 20, symbol M); type: in vivo, velvetleaf (Abutilon theophrasti); settings: amount of applied herbicide 320 g/ha; foliage application after 14-day growth; evaluated three weeks after application
Procedure, shortened: as §2

[21] = test system: barnyard grass; test: Test Example 3: herbicidal effect by foliage application, Wagner pot (Table 18, symbol H); type: in vivo, barnyard grass (Echinochloa crus-galli); settings: 320 g/ha
Procedure, shortened: as §3

[22] = test system: blackgrass; test: Test Example 5: herbicidal effect by foliage application, plastic box (Table 20, symbol J); type: in vivo, blackgrass (Alopecurus myosuroides); settings: amount of applied herbicide 320 g/ha; foliage application after 14-day growth; evaluated three weeks after application
Procedure, shortened: as §2

[23] = test system: blackgrass; test: Test Example 4: herbicidal effect by soil treatment (Table 19, symbol J); type: in vivo, blackgrass (Alopecurus myosuroides); settings: amount of applied herbicide 320 g/ha
Procedure, shortened: as §1

[24] = test system: green foxtail; test: Test Example 5: herbicidal effect by foliage application, plastic box (Table 20, symbol G); type: in vivo, green foxtail (Setaria viridis); settings: amount of applied herbicide 320 g/ha; foliage application after 14-day growth; evaluated three weeks after application
Procedure, shortened: as §2

[25] = test system: windgrass; test: Test Example 5: herbicidal effect by foliage application, plastic box (Table 20, symbol L); type: in vivo, windgrass (Apera spica-venti); settings: amount of applied herbicide 320 g/ha; foliage application after 14-day growth; evaluated three weeks after application
Procedure, shortened: as §2

[26] = test system: southern crabgrass; test: Test Example 5: herbicidal effect by foliage application, plastic box (Table 20, symbol F); type: in vivo, southern crabgrass (Digitaria ciliaris); settings: amount of applied herbicide 320 g/ha; foliage application after 14-day growth; evaluated three weeks after application
Procedure, shortened: as §2

[27] = test system: chickweed; test: Test Example 4: herbicidal effect by soil treatment (Table 19, symbol P); type: in vivo, common chickweed (Stellaria media); settings: amount of applied herbicide 320 g/ha
Procedure, shortened: as §1

## Cc1nn(C)c(=O)c(-c2c(-c3ccc(C(F)(F)F)cc3)sc3cc(F)c(F)cc23)c1O [5-007]
[1]
  L: windgrass, herbicidal effect grade: 0 (Herbicidal rate of 5% or less (almost no effect))
[2]
  K: Italian ryegrass, herbicidal effect grade: 0 (Herbicidal rate of 5% or less (almost no effect))
[3]
  O: lambsquarters, herbicidal effect grade: 1 (Herbicidal rate of 5% or more and less than 20%)
[4]
  H: barnyard grass, herbicidal effect grade: 0 (Herbicidal rate of 5% or less (almost no effect))
[5]
  Herbicidal effect by foliage application, K: Italian ryegrass: 0 (Herbicidal rate of 5% or less (almost no effect))
[6]
  Herbicidal effect by foliage application, H: barnyard grass: 3 (Herbicidal rate of 40% or more and less than 70%)
[7]
  N: redroot pigweed, herbicidal effect grade: 3 (Herbicidal rate of 40% or more and less than 70%)
[8]
  G: green foxtail, herbicidal effect grade: 3 (Herbicidal rate of 40% or more and less than 70%)
[9]
  herbicidal effect on rice flat sedge (E): 2 (Herbicidal rate of 20% or more and less than 40%)
[10]
  Herbicidal effect by foliage application, I: wild oat: 2 (Herbicidal rate of 20% or more and less than 40%)
[11]
  F: southern crabgrass, herbicidal effect grade: 0 (Herbicidal rate of 5% or less (almost no effect))
[12]
  Herbicidal effect by foliage application, R: persian speedwell: 5 (Herbicidal rate of 90% or more (almost completely withered))
[13]
  Herbicidal effect by foliage application, N: redroot pigweed: 5 (Herbicidal rate of 90% or more (almost completely withered))
[14]
  R: persian speedwell, herbicidal effect grade: 3 (Herbicidal rate of 40% or more and less than 70%)
[15]
  M: velvetleaf, herbicidal effect grade: 0 (Herbicidal rate of 5% or less (almost no effect))
[16]
  Herbicidal effect by foliage application, P: chickweed: 5 (Herbicidal rate of 90% or more (almost completely withered))
[17]
  I: wild oat, herbicidal effect grade: 0 (Herbicidal rate of 5% or less (almost no effect))
[18]
  Herbicidal effect by foliage application, O: lambsquarters: 5 (Herbicidal rate of 90% or more (almost completely withered))
[19]
  herbicidal effect on Chinese sprangletop (D): 1 (Herbicidal rate of 5% or more and less than 20%)
[20]
  Herbicidal effect by foliage application, M: velvetleaf: 3 (Herbicidal rate of 40% or more and less than 70%)
[21]
  herbicidal effect on barnyard grass (H): 4 (Herbicidal rate of 70% or more and less than 90%)
[22]
  Herbicidal effect by foliage application, J: blackgrass: 0 (Herbicidal rate of 5% or less (almost no effect))
[23]
  J: blackgrass, herbicidal effect grade: 0 (Herbicidal rate of 5% or less (almost no effect))
[24]
  Herbicidal effect by foliage application, G: green foxtail: 4 (Herbicidal rate of 70% or more and less than 90%)
[25]
  Herbicidal effect by foliage application, L: windgrass: 4 (Herbicidal rate of 70% or more and less than 90%)
[26]
  Herbicidal effect by foliage application, F: southern crabgrass: 5 (Herbicidal rate of 90% or more (almost completely withered))
[27]
  P: chickweed, herbicidal effect grade: 3 (Herbicidal rate of 40% or more and less than 70%)

## CC(=O)COc1ccc(-c2sc3cc(F)c(F)cc3c2-c2c(O)c(C)nn(C)c2=O)cc1 [5-023]
[1]
  L: windgrass, herbicidal effect grade: 0 (Herbicidal rate of 5% or less (almost no effect))
[2]
  K: Italian ryegrass, herbicidal effect grade: 0 (Herbicidal rate of 5% or less (almost no effect))
[3]
  O: lambsquarters, herbicidal effect grade: 2 (Herbicidal rate of 20% or more and less than 40%)
[4]
  H: barnyard grass, herbicidal effect grade: 0 (Herbicidal rate of 5% or less (almost no effect))
[5]
  Herbicidal effect by foliage application, K: Italian ryegrass: 0 (Herbicidal rate of 5% or less (almost no effect))
[6]
  Herbicidal effect by foliage application, H: barnyard grass: 1 (Herbicidal rate of 5% or more and less than 20%)
[7]
  N: redroot pigweed, herbicidal effect grade: 3 (Herbicidal rate of 40% or more and less than 70%)
[8]
  G: green foxtail, herbicidal effect grade: 0 (Herbicidal rate of 5% or less (almost no effect))
[9]
  herbicidal effect on rice flat sedge (E): 0 (Herbicidal rate of 5% or less (almost no effect))
[10]
  Herbicidal effect by foliage application, I: wild oat: 0 (Herbicidal rate of 5% or less (almost no effect))
[11]
  F: southern crabgrass, herbicidal effect grade: 0 (Herbicidal rate of 5% or less (almost no effect))
[12]
  Herbicidal effect by foliage application, R: persian speedwell: 3 (Herbicidal rate of 40% or more and less than 70%)
[13]
  Herbicidal effect by foliage application, N: redroot pigweed: 5 (Herbicidal rate of 90% or more (almost completely withered))
[14]
  R: persian speedwell, herbicidal effect grade: 0 (Herbicidal rate of 5% or less (almost no effect))
[15]
  M: velvetleaf, herbicidal effect grade: 0 (Herbicidal rate of 5% or less (almost no effect))
[16]
  Herbicidal effect by foliage application, P: chickweed: 5 (Herbicidal rate of 90% or more (almost completely withered))
[17]
  I: wild oat, herbicidal effect grade: 0 (Herbicidal rate of 5% or less (almost no effect))
[18]
  Herbicidal effect by foliage application, O: lambsquarters: 3 (Herbicidal rate of 40% or more and less than 70%)
[19]
  herbicidal effect on Chinese sprangletop (D): 3 (Herbicidal rate of 40% or more and less than 70%)
[20]
  Herbicidal effect by foliage application, M: velvetleaf: 5 (Herbicidal rate of 90% or more (almost completely withered))
[21]
  herbicidal effect on barnyard grass (H): 4 (Herbicidal rate of 70% or more and less than 90%)
[22]
  Herbicidal effect by foliage application, J: blackgrass: 0 (Herbicidal rate of 5% or less (almost no effect))
[23]
  J: blackgrass, herbicidal effect grade: 0 (Herbicidal rate of 5% or less (almost no effect))
[24]
  Herbicidal effect by foliage application, G: green foxtail: 4 (Herbicidal rate of 70% or more and less than 90%)
[25]
  Herbicidal effect by foliage application, L: windgrass: 0 (Herbicidal rate of 5% or less (almost no effect))
[26]
  Herbicidal effect by foliage application, F: southern crabgrass: 0 (Herbicidal rate of 5% or less (almost no effect))
[27]
  P: chickweed, herbicidal effect grade: 3 (Herbicidal rate of 40% or more and less than 70%)
